# Measurements published in a melting point compilation (Tetko et al.; mined from patent text by program, amines drawn as free bases though some values may be those of a salt).
row,melting point,SMILES
1,165 to 168 °C,COc1ccc(Nc2nc(Cl)nc(Cl)n2)cc1
2,165 to 166 °C,COc1ccc2nc(C)cc(Oc3cc(-c4ccc(C(F)(F)F)cc4)ncn3)c2c1
3,254 to 256 °C,CNC(=O)c1ccc2c(c1Nc1nc(Nc3ccc4c(c3)CCCC(=O)N4C)ncc1Cl)OCO2
4,79 to 80 °C,CCOCCNC(=O)c1cccc(-c2cccc3cc(Cc4cc(F)cc(Cl)c4)sc23)c1
5,111 to 112 °C,CC(c1ccc(Cl)cc1Cl)C1(c2cccnc2)OC=CC1=O (stereo unspecified)
6,151 to 153 °C,COc1ccc(S(=O)(=O)Nc2cccc3c2N(C)c2ccccc2O3)cc1
7,152 to 154 °C,Cc1ccc(Cl)c(Nc2ccccc2C(=O)CS(C)=O)c1Cl (stereo unspecified)
8,173 to 175 °C,O=C(Nc1ccc(-n2nc(C(F)(F)F)cc2C(F)(F)F)cc1)c1ccccc1O
9,318 to 321 °C,COc1cc2c3nn(-c4ccc(Cl)cc4)c(=O)c-3c[nH]c2c(OC)n1
10,249 to 250 °C,O=C(NCc1ccc(O)cc1)c1[nH]c2ccc(Cl)cc2c1S(=O)(=O)c1ccccc1
11,247 to 248 °C,CC(C)(C)c1ccc(N2C[C@@H](COc3ccc(C(=O)O)cc3)CC2=O)cc1
12,186 to 188 °C,O=C1Cc2cccc(Sc3ccc(Cl)cc3)c2N1
13,275 to 280 °C,Cc1csc2c1c(-c1ccccc1)nc(=O)n2C
14,212 to 214 °C,CCOC(=O)c1cc(COc2cc3ncnc(Nc4ccc(Cl)cc4F)c3cc2OC)ccn1
15,70 °C,CC(OCc1cc2cc(Cl)ccc2n1S(=O)(=O)c1ccc2c(c1)OCCO2)C(=O)O (stereo unspecified)
16,220 to 222 °C,COc1cccc(COc2ccc3c(c2)C=C(C(=O)O)CCS3(=O)=O)c1

row,melting point,SMILES
1,93 to 95 °C,CCOc1ccc(-n2c(C(F)(F)F)nn(C)c2=S)cc1
2,233 °C,O=C(Nc1ccc2[nH]c(=O)oc2c1)C(=O)N1CCC(Cc2ccc(F)c(F)c2)CC1
3,256 °C,Cc1c(C(=O)Nc2ccc(N3CCC(N4CCSCC4)CC3)c(C#N)c2)cnn1-c1ccc(Cl)cc1
4,250 to 252 °C,O=C(NC(Cc1ccc(OCc2ccccc2F)cc1)C(=O)O)c1cn2ccc(-c3ccc(Cl)cc3)cc2n1 (stereo unspecified)
5,209 to 211 °C,COc1cc(-c2ccccc2Cl)c(Cl)cc1C(=O)N1Cc2ccc(C(=O)O)n2Cc2ccccc21
6,91 to 92 °C,CC(C)Cn1c(-c2c(F)cccc2F)cnc(-n2cccn2)c1=O
7,129 to 130 °C,Nc1nc(-c2ccc(Cl)cc2)cc(C2CCN(C(=O)c3ccccc3)CC2)n1
8,146 to 148 °C,CCCn1nc(-c2sc(C(=O)NC(C)C)nc2-c2ccccc2)ccc1=O
9,> 250 °C,CC(C)n1nc(-c2cc(C(N)=O)c(=O)[nH]c2-c2ccccc2)ccc1=O
10,174 °C,CN1Cc2cc(C(c3ccccc3)n3ccnc3)ccc2NC1=O (stereo unspecified)
11,187 to 189 °C,CC(C)c1ccc(-c2nc(-c3cccc(C(=O)O)c3)co2)cc1
12,228 to 230 °C,COc1cccc(CNC(=O)c2nc3scc(COc4ccc(CC(=O)O)cc4)c3c(=O)[nH]2)c1
13,205 to 206 °C,C=C1C(=C)C2OC1c1cc3c(OC)ccc(OC)c3cc12
14,192 to 194 °C,COc1cc(C(=O)Nc2ccc(N3CCOCC3)cc2C(C)=O)ccc1OCc1ccccc1
15,176 °C,Clc1ccc(C2=NNCC2n2cc(Cl)cn2)cc1 (stereo unspecified)

# Further lines, the compound ahead of its results:
row,SMILES,melting point
1,COc1cccc([C@H]2CCCN2[S@@](=O)C(C)(C)C)c1,45 to 50 °C
2,COc1c(N2CC(C)C(N)C(C)(C)C2)c(F)c(N)c2c(=O)c(C(=O)O)cn(C3CC3)c12 (stereo unspecified),248 to 252 °C
3,NS(=O)(=O)c1cccc(-c2cn(-c3cc(-c4ccc(C(F)(F)F)cc4)cc(C(F)(F)F)n3)cn2)c1,> 250 °C
4,O=C(CCc1ccccc1)N[C@H](Cc1ccc(C(F)(F)F)cc1)[C@@H](O)c1ccc(Oc2ccccc2)cc1 (racemic),133 to 134 °C
5,c1ccc(Pc2ccccc2)cc1,128 to 131 °C
6,O=C(CCCCCl)NC1c2ccccc2CSc2ccccc21 (stereo unspecified),155 to 156 °C
7,CCS(=O)(=O)c1cc(S(N)(=O)=O)sc1S(=O)(=O)CC,176 to 177 °C
8,O=c1c2ccccc2n(CCCCN2CCC(OC(c3ccccc3)c3ccccc3)CC2)c(=O)n1CCO,145 to 150 °C
9,COC(=O)c1nc(C2CCCCC2)[nH]c1-c1ccc(C)cc1,210 to 213 °C
10,CC(=O)Nc1ccc(NCCOS(C)(=O)=O)c([N+](=O)[O-])c1,166 °C
11,CCc1oc(-c2ccc(C(F)(F)F)cc2)cc1CCC(=O)O,94 to 95 °C
12,NC(=O)c1cccc(OCCCCCCCc2ccsc2)c1,97 to 100 °C
13,Cc1ccccc1COC1COC(CCl)OC1 (stereo unspecified),62 to 63 °C
14,CN1CCN(C2CCC(Nc3ncc4ncnc(Nc5ccc(F)c(Cl)c5)c4n3)CC2)CC1 (stereo unspecified),194 to 196 °C
15,COc1ccc(C(=O)Nc2cccc(C(=O)O)c2)c2cc(C(=O)c3ccccc3)oc12,262 to 263 °C
16,CC1(C)C=C(I)C(=O)C(C)(C)C1,41 to 42 °C
17,CCCC(=NOCC)C1=C(O)CC2(CSCCSC2)OC1=O,108 to 110 °C
18,Cn1c(C(F)(F)F)nn(-c2cc(O)c(C#N)cc2F)c1=O,208 °C
19,BrCc1ccc2ccccc2c1CBr,149 to 150 °C
20,Cc1ccc(C2=NCCN2C(=O)Nc2ccccc2)cc1C,139 to 142 °C
21,CCOC(=O)C=Cc1ccn(C)c(=O)c1,126 to 127 °C
22,Cc1ccc(S(=O)(=O)N2[C@@H](Cc3nc(C4CC4)no3)CC[C@H]2c2ccc(F)cc2)cc1 (racemic),102 °C
23,Cc1ccc2c(c1C)OC(C)C(NNc1ncnc3c1ncn3C1OC(CO)C(O)C1O)C2 (stereo unspecified),109 to 113 °C
24,Cc1cc(C)cc(SN2C(=O)CCC2=O)c1,131 to 134 °C

row,SMILES,melting point
1,CCCn1nc2c(N)nc3ccccc3c2c1NCCC1CCN(S(C)(=O)=O)CC1,204 to 207 °C
2,CC(=O)Nc1ccc(C(C)=NNc2ccc(C3=NNC(=O)CC3C)cc2)cc1 (stereo unspecified),145 to 155 °C
3,CN(C)CCCCCCOc1ccc(C(=O)/C=C/c2ccccc2)cc1,43 to 46 °C
4,CC(C)CC(NC(=O)O)C(=O)NC(C)(C)C#N (stereo unspecified),166 to 168 °C
5,COc1ccc(/C=C/S(=O)(=O)N(C)c2ccccc2)cc1,126 to 129 °C
6,COc1cc(C(=O)N2CC2C#N)cc(OC)c1OC (stereo unspecified),86 to 89 °C
7,CNC(=O)c1cccc2c(-c3ccccc3)c([N+](=O)[O-])oc12,167 to 169 °C
8,CCCCCS(=O)(=O)NC(=O)OCc1ccc(OS(=O)(=O)CCC)cc1Oc1ncc(C(F)(F)F)cc1Cl,86 to 89 °C
9,CCOC(=O)c1cn(-c2ccc([N+](=O)[O-])cn2)cn1,212 to 214 °C
10,O=c1[nH]c(=O)n(CCCCN2CCC(OC(c3ccccc3)c3ccccc3)CC2)c2cc(Cl)ccc12,169 to 171 °C
11,O=C1Nc2ccc([N+](=O)[O-])cc2C2(c3ccccc3)OCCN12 (stereo unspecified),275 to 276 °C
12,O=C1N[C@H](C(=O)NCCO)CS1,116 to 118 °C
13,OC(CCc1cccnc1)COc1ccc(CCc2ccccc2)cc1 (stereo unspecified),95 to 96 °C
14,CC(C)OCCNc1ccccc1C(=O)C(=O)OC(=O)C(=O)c1ccccc1NCCOC(C)C,107 to 108 °C
15,Cn1c(C(F)(F)F)cc(=O)n(-c2c(F)cc(Cl)c3cc(C=O)oc23)c1=O,180 to 183 °C
16,CCCOC(=O)c1cn(CC)c2nc(N3CCNCC3)c(F)cc2c1=O,133 to 135 °C
17,Nc1ccc(S(=O)(=O)CCO)cc1C(=O)O,164 to 167 °C
18,CCCC12CSC(SC1)SC2,139 °C
19,CC(=O)NC[C@H]1CN(c2ccc(/C=C3\C(=O)N(c4ccccc4)N=C3C(C)(C)C)cc2)C(=O)O1,70 °C
20,Cc1cc(C)c(CNc2cccc(S(=O)(=O)O)c2)c(C)c1,> 275 °C
21,Cc1csc2ccc(C3CCN(Cl)CC3)cc12,57 to 61.5 °C
22,CN1CCN(C(=O)c2ccc3n2Cc2ccccc2N(C(=O)c2ccc(C4CCCCC4)cc2)C3)CC1,134 to 136 °C
23,O=C(O)c1ccc(O)c(Cl)c1Cl,200 °C
24,CCOC(=O)c1ccc(NC(=O)CCCCCc2ccc(Cl)cc2)cc1,107 to 108 °C

row,SMILES,melting point
1,CC1CN(c2nc(Cl)nc(C(C)O)n2)CC(C)N1 (stereo unspecified),126 to 128 °C
2,CCOC(=O)Cc1c(C(F)(F)F)nc(C)[nH]c1=O,108 to 110 °C
3,Cc1ncc2cc(Cl)nc(Cl)n12,134 to 135 °C
4,Cc1c2n(c(=O)c3c(O)cccc13)CCCS2=O (stereo unspecified),169 to 170 °C
5,CSc1ccc(NC2=C(C#N)CSC2)c([N+](=O)[O-])c1,141 to 142 °C
6,CCCCCOC(=O)c1cc(O)c2c(n1)c(C)cc1c(O)cc(C(=O)OCCCCC)nc12,137 to 139 °C
7,CC(C)(C)NC(=O)c1ccc(-c2cccc3cncn23)cc1,128 to 131 °C
8,CC(=O)Oc1ccc(-c2ccc(C(C)=O)cc2)cc1,124 to 126 °C
9,CCCCCC(C)N(Cc1ccc(OCCC(C)C)cc1)C(Nc1ccc(OC)cc1OC)=C1C(=O)COC1=O (stereo unspecified),125 to 127 °C
10,CCCCCCCCCCCCCCCCC#CCO,60 °C
11,COCCOc1ccc([N+](=O)[O-])cc1I,35 to 36 °C
12,O=C(CCCN1CCN(c2ccc(CO)c(Cl)c2)CC1)c1cccs1,131 to 133 °C
13,O=C1c2ccccc2N(N2CCOCC2)C2=NCCN12,250 to 251 °C
14,CC(C)(C)OC(=O)Nc1ccc(I)cc1NC(=O)CC(=O)c1cccc(C#N)c1,182 to 183 °C
15,CN(C)c1nn(-c2cc(F)c(C#N)cc2F)c(=O)n1C,131 to 133 °C
16,Cc1nc[nH]c1CSCCNC(=N)NS(=O)(=O)c1ccccc1,149 to 150 °C
17,O=c1[nH]c2ccc([N+](=O)[O-])cc2s1,252 °C
18,IC=CC(CC1CCCC1)OC(c1ccccc1)(c1ccccc1)c1ccccc1 (stereo unspecified),87 to 88 °C
19,CN1CCN(c2cccc3c2CC(=O)CC3)CC1,> 85 °C
20,O=Cc1ccc(-c2ccc(-c3ccco3)o2)o1,75 to 77 °C
21,CCOC(=O)Nc1ccc(OCc2nc3ccccc3s2)cc1,149 to 150 °C
22,CS(=O)(=O)c1ccc(C2=C(c3ccc(F)cc3)CC3(CCC3)C2)cc1,123 to 124 °C
